Experimental findings from patent publication US20190336598A1, “METHODS FOR MODULATING INFLAMMASOME ACTIVITY AND INFLAMMATION IN THE LUNG” (UNIVERSITY OF MIAMI, priority 2016, published 2019) are described below.

“Also recorded” adds a separate entry of the source.

Holding throughout (type): in vivo, C57-BL6 mice
For experiment [1], the system named is inflammasome proteins (caspase-1, ASC, IL-1β, AIM2, HMGB1) in lungs. Description: Immunoblot of inflammasome proteins in lungs after adoptive transfer of EV from TBI mice and treatment. The note with it: vs untreated positive control; Enoxaparin 3 mg/kg or IC 100 5 mg/kg one hour after EV from TBI mice; lungs collected 24 hours after injection; p=<0.0001. On the procedure:
Lung and brain tissue samples were snap frozen in liquid nitrogen and stored in −80° C. 2-mm sections of right lower lung and right cortical tissue were homogenized in extraction buffer containing protease and phosphatase inhibitor cocktail (Sigma, St Louis, Mo., USA) and resolved in 4-20% Tris-TGX Criterion precasted gels (Bio-Rad, Hercules, Calif., USA) as described in de Rivero Vaccari et al. 2015 (13) using antibodies to caspase-1 (Novus Biologicals), ASC (Santa Cruz), IL-1 β (Cell Signaling), IL-18 (Abcam) AIM2 (Santa Cruz) and HMGB1 (Millipore). Quantification of band density was performed using Image Lab and all data were normalized to β-actin.
(§1) Serum-derived EV from C57BL-6 TBI and sham mice were injected into naïve C57BL-6 mice through the jugular vein at a dose of 1.0×10^10 particles per gram/body weight^48. Particle count was measured by Nanosight Tracking analysis and samples were diluted accordingly. Prior to surgery animals were anesthetized with ketamine and […]. A 1-2 cm incision was made between the jaw and the clavicle. The jugular vein was elevated and tied, followed by catheter placement. Serum-derived EV were transferred and lung and brain tissues were collected 24 hours after injection for analysis (n=5).
(§2) Serum-derived EV from TBI mice were injected into naïve C57-BL6 mice through a jugular vein injection. One hour later, Enoxaparin (3 mg/kg) (n=4) and Anti-ASC (5 mg/kg) (n=4) were administered to recipient animals. The following groups were used: 1) the naïve group received no treatment, 2) the sham saline group was used as a negative control and underwent jugular vein injection of only saline, 3) the untreated group received EV from TBI mice without any treatment and was used as a positive control, 4) the ENOX group received EV from TBI mice and Enoxaparin, and 5) the Anti-ASC group received EV from TBI mice and Anti-ASC. The order of treatment was randomized. Lung and brain tissues were collected 24 hours after injection for analysis. It should be noted that the anti-ASC antibody used in the treatment experiments was a humanized monoclonal antibody against ASC and recognizes murine, human and swine ASC.
A general note: Immunoblotting shows a protein as a band on a membrane.

The subject of experiment [2] is lungs of animals delivered EV from injured mice (ALI). Put plainly: Histology (H&E) and acute lung injury scoring after adoptive transfer of EV from TBI mice and treatment. Particulars: Enoxaparin 3 mg/kg or IC 100 5 mg/kg one hour after EV from TBI mice; for neutrophil infiltration into alveolar and interstitial space (H&E stained lung sections, FIG. 9A-D) / septal thickening (H&E stained lung sections, FIG. 9A-D): lungs 24 hours after injection; for ALI score (FIG. 9E): vs untreated group, score 0 (no injury) to 1 (severe injury), p=<0.0001. As for the experimental part: as §1, §2
Lung tissue sections were stained by a standard hematoxylin and eosin method for histology, morphometry and ALI scoring. Lung sections were scored by a blinded pathologist using the Lung Injury Scoring System from the American Thoracic Society Workshop Report (17). Twenty random high power fields were chosen for scoring. Criteria for ALI scoring was based on number of neutrophils in the alveolar space, interstitial space, hyaline membranes, proteinaceous debris filling the airspaces and alveolar septal thickening. Based on these criteria a score between 0 (no injury) and 1 (severe injury) was given.

For experiment [3], the system named is inflammasome proteins (caspase-1, ASC, IL-1β, AIM2, HMGB1) in lungs. Put plainly: Immunoblot of inflammasome proteins in lungs after adoptive transfer of EV from TBI mice and treatment. The note with it: vs untreated positive control animals; Enoxaparin 3 mg/kg, IC 100 5 mg/kg; N=4 per group.

With Enoxaparin, in experiment [1], the “AIM2 in lungs (FIG. 8E)” value was “significantly reduced”, the “ASC in lungs (FIG. 8C)” value is recorded as “significantly reduced”, the “Caspase-1 in lungs (FIG. 8B)” value was “significantly reduced” and the “HMGB1 in lungs (FIG. 8F)” value is reported as “significantly reduced”. Also, the “IL-1β in lungs (FIG. 8D)” value in experiment [1] was “significantly reduced”. In experiment [2], the “neutrophil infiltration into alveolar and interstitial space (H&E stained lung sections, FIG. 9A-D)” value is recorded as “significantly less”; the “septal thickening (H&E stained lung sections, FIG. 9A-D)” value is “no signs”; the “ALI score (FIG. 9E)” value was “significantly lower; also recorded: significantly decreased”. For the same molecule, the “IL-1β in lungs (FIG. 8D)” value in experiment [3] is “reduced”.

B1: IC 100: humanized monoclonal antibody against ASC; recognizes murine, human and swine ASC (antibody, V domains shown)
VH: QVTLKESGPALVKPTQTLTLTCSFSGFSLSTSGMGVSWIRQPAGKGLEWLAHIYWDDDKRYNPSLKSRLTISKDSSKNQVVLTMTNMDPVDTATYSCARSTPIVANAMDYWGQGTLVTVSS
VL: DIVMTQSPDSLAVSLGERATINCKASQSVDYDGDSYMNWYQQKPGQPPKLLIYAASNLESGIPARFSGSGSGTDFTLTISSLQPEDVATYYCQQSNEDPYTFGQGTKLEIK
Regarding B1, in experiment [1], the “AIM2 in lungs (FIG. 8E)” value was “significantly reduced”, the “ASC in lungs (FIG. 8C)” value was “significantly reduced”, the “Caspase-1 in lungs (FIG. 8B)” value is recorded as “significantly reduced” and the “HMGB1 in lungs (FIG. 8F)” value is given as “significantly reduced”. In experiment [1], the “IL-1β in lungs (FIG. 8D)” value is “significantly reduced”. Moreover, in experiment [2], the “neutrophil infiltration into alveolar and interstitial space (H&E stained lung sections, FIG. 9A-D)” value was “significantly less”; the “septal thickening (H&E stained lung sections, FIG. 9A-D)” value is listed as “no signs”; the “ALI score (FIG. 9E)” value was “significantly lower; also recorded: significantly decreased”. In experiment [3], the “IL-1β in lungs (FIG. 8D)” value is “reduced”.
